# In US4355043A, “Novel derivatives of 3-aminopropanesulfonic acid having a reinforced activity on membrane” (Les Laboratoires Meram, priority 1979, dated 1982):
# Read-outs that look alike come from different tables or passages of the source.
# Columns and labels:
# [1] = LD50 toxicity in the mouse (Table I; text); conditions: for change of LD50 of the cation against the reference salt: expressed as cation
# in vivo = conditions: mouse, ip
# erythrocyte membrane = experiment: stabilising effect on the erythrocyte membrane (haemolysis in hypotonic medium and with heat); type: cell-based, rabbit
# Text: Nature (1970) 225, Mar. 21, 1150-1151.
# [2] = mouse, in vivo, ip
# [3] = tested on: convulsions caused by pentetrazol; experiment: anti-convulsivant action on convulsions caused by pentetrazol; type: in vivo, mouse
# Procedure: The compounds according to the invention also present an anti-convulsivant action on the convulsions caused in the mouse by pentetrazol: After administration of pentetrazol, the time of appearance of the convulsions and the time of appearance of death is measured, in the animals which previously received, by the intraperitoneal route, the product to be tested, comparatively to controls receiving only pentetrazol.
# hypermotility by ethanol = experiment: antagonism of the hypermotility caused by ethanol (Cott-Carlsson Engel Lindqvist test); type: in vivo, mouse; conditions: for antagonism of ethanol hypermotility / sedative activity, ranking: mouse, per os, comparison in words
# Procedure: The motility of the mice placed in the actimeter is recorded immediately after this injection, every 5 minutes, for 60 minutes. The percentage of variation of the motility of the mice treated with ethanol with respect to the controls receiving water is determined, and of mice treated with the product to be tested and with ethanol with respect to mice receiving only ethanol.
# [4] = rectal temperature (hypothermia); type: in vivo; conditions: rat
# [5] = tested on: muscle fatigued by application of lactic acid; experiment: test of the muscle fatigued by application of lactic acid; type: in vivo; conditions: comparison within the series
# Text: (§1) It is furthermore suitable for the manufacture of aqueous solutions.
# narcosis by ethanol = experiment: potentialization of narcosis by ethanol; type: in vivo; conditions: mouse, oral route, comparison within the series
# Text: as §1
# [6] = LD50 expressed in Mg++ or Li+, intraperitoneal route
# [7] = rabbit red cells in vitro, hypotonic medium pH 7.4, 53° C., read-out: ED50, stabilising effect on the erythrocyte membrane
smiles,measurement,setting,value
CC(=O)NCCCS(=O)(=O)[O-].[Li+],change of LD50 of the cation against the reference salt,"[1]; mouse, intraperitoneal route",significantly increased
same,LD50,"in vivo; LD50, male mouse",4260 mg/kg
same,LD50,in vivo; [6],157 mg/kg
same,EC50,"erythrocyte membrane; Oryctolagus cuniculus, Erythrocyte, pH 7.4, read-out: ED50, stabilising effect on the erythrocyte membrane",10 mM
"CC(=O)NCCCS(=O)(=O)O [Calcium acetylhomotaurinate, calcium N-acetylhomotaurinate]",LD50,[2],1870 mg/kg
same,LD50 expressed as cation,[2],186 mg cation/kg
same,time of appearance of death,[3]; 400 mg/kg i.p.,significant antagonism (xx)
same,time of appearance of convulsions,[3]; 800 mg/kg i.p.,significant
same,time of appearance of death,[3]; 800 mg/kg i.p.,significant antagonism (xx)
same,time of appearance of the convulsions,[3]; 1000 mg/kg i.p.,very significant (xxx)
same,"anti-convulsivant activity, comparison","[3]; mouse, i.p., in words",greater than that of Mg acetylhomotaurinate
same,"antagonism of the hypermotility by ethanol, result",hypermotility by ethanol; 80 mg per os,0
same,"antagonism of the hypermotility by ethanol, result",hypermotility by ethanol; 100 mg per os,antagonism
same,"antagonism of the hypermotility by ethanol, significance",hypermotility by ethanol; 100 mg per os,xxx
same,"antagonism of the hypermotility by ethanol, result",hypermotility by ethanol; 200 mg per os,antagonism
same,"antagonism of the hypermotility by ethanol, significance",hypermotility by ethanol; 200 mg per os,xx
same,"antagonism of the hypermotility by ethanol, result","hypermotility by ethanol; 200 mg per os, listed as calcium acetylhomotaurinate",significant antagonism
same,"antagonism of the hypermotility by ethanol, result",hypermotility by ethanol; 400 mg per os,antagonism
same,"antagonism of the hypermotility by ethanol, result","hypermotility by ethanol; 400 mg per os, listed as calcium acetylhomotaurinate",significant antagonism
same,"antagonism of the hypermotility by ethanol, result",hypermotility by ethanol; 800 mg per os,antagonism
same,"antagonism of the hypermotility by ethanol, significance",hypermotility by ethanol; 800 mg per os,xx (shorter)
same,"antagonism of the hypermotility by ethanol, result","hypermotility by ethanol; 800 mg per os, listed as calcium acetylhomotaurinate",this effect is confirmed at the dose of 800 mg/kg but does not appear to be superior to that recorded at 400 mg
same,"antagonism of ethanol hypermotility / sedative activity, ranking",hypermotility by ethanol; listed as Ca acetylhomotaurinate,greater than that of Mg acetylhomotaurinate
same,ranking of hypothermic activity,[4],more active than that of magnesium
same,EC50,erythrocyte membrane; [7],1 mM
"CC(=O)NCCS(=O)(=O)O [Calcium acetyltaurinate, reference compound]",LD50 by oral route,"[1]; oral route, footnote of Table I",13090 mg/kg
same,time of appearance of death,"[3]; 1000 mg/kg i.p., listed as Ca acetyltaurinate",significantly (x)
same,"antagonism of the hypermotility by ethanol, result",hypermotility by ethanol; 80 mg per os,0
same,"antagonism of the hypermotility by ethanol, result",hypermotility by ethanol; 800 mg per os,antagonism
same,"antagonism of the hypermotility by ethanol, significance",hypermotility by ethanol; 800 mg per os,x to xx according
"NCCCS(=O)(=O)O [Homotaurine, 3-aminopropanesulfonic acid]",effect on rectal temperature,[4]; homotaurine by intraperitoneal route,does not modify the rectal temperature
same,EC50,"erythrocyte membrane; Oryctolagus cuniculus, Erythrocyte, pH 7.4, rabbit red cells in vitro, hypotonic medium pH 7.4, 53° C., read-out: ED50, stabilising effect on the erythrocyte membrane",15 mM
"CC(=O)NCCCS(=O)(=O)O [Magnesium acetylhomotaurinate, magnesium N-acetylhomotaurinate]",change of LD50 of the cation against the reference salt,"[1]; mouse, intraperitoneal route",significantly increased
same,LD50,"in vivo; LD50, male mouse",2570 mg/kg
same,LD50,in vivo; [6],161 mg/kg
same,time of appearance of convulsions,[3]; 800 mg/kg i.p.,significant
same,"antagonism of the hypermotility by ethanol, result",hypermotility by ethanol; 80 mg per os,antagonism
same,"antagonism of the hypermotility by ethanol, result",hypermotility by ethanol; 100 mg per os,antagonism
same,"antagonism of the hypermotility by ethanol, significance",hypermotility by ethanol; 100 mg per os,not significant
same,"antagonism of the hypermotility by ethanol, result",hypermotility by ethanol; 200 mg per os,antagonism
same,"antagonism of the hypermotility by ethanol, result","hypermotility by ethanol; 200 mg per os, listed as magnesium acetylhomotaurinate",slightly less than that of the calcium salt
same,"antagonism of the hypermotility by ethanol, result",hypermotility by ethanol; 400 mg per os,antagonism
same,"antagonism of the hypermotility by ethanol, result","hypermotility by ethanol; 400 mg per os, listed as magnesium acetylhomotaurinate",slightly less than that of the calcium salt
same,EC50,erythrocyte membrane; [7],10 mM
"CC(=O)NCCS(=O)(=O)O [Magnesium acetyltaurinate, reference compound]",time of appearance of the convulsions,[3]; 1000 mg/kg i.p.,significantly (xx)
same,time of appearance of death,"[3]; 1000 mg/kg i.p., listed as Mg acetyltaurinate",significantly (xx)
same,"antagonism of the hypermotility by ethanol, result",hypermotility by ethanol; 100 mg per os,antagonism
same,"antagonism of the hypermotility by ethanol, significance",hypermotility by ethanol; 100 mg per os,not significant
same,"antagonism of the hypermotility by ethanol, result",hypermotility by ethanol; 200 mg per os,antagonism
same,"antagonism of the hypermotility by ethanol, significance",hypermotility by ethanol; 200 mg per os,not significant
same,"antagonism of the hypermotility by ethanol, result",hypermotility by ethanol; 400 mg per os,0
"CC(=O)NCCCS(=O)(=O)O [Potassium acetylhomotaurinate, 3-acetylaminopropanesulfonate of potassium]",LD50,[2],4120 mg/kg
same,LD50 expressed as cation,[2],733 mg cation/kg
same,time of appearance of death,[3]; 315 mg/kg i.p.,"increase, without reaching the level of significance"
same,time of appearance of the convulsions,[3]; 315 mg/kg i.p.,"increase, without reaching the level of significance"
same,activity in the test of the muscle fatigued by lactic acid,[5],the most active
same,EC50,erythrocyte membrane; [7],5 mM
"CC(=O)NCCCS(=O)(=O)O [Sodium acetylhomotaurinate, 3-acetylaminopropanesulfonate of sodium]",LD50,[2],greater than 5 g/kg
same,time of appearance of death,[3]; 292 mg/kg i.p.,"increase, without reaching the level of significance"
same,time of appearance of the convulsions,[3]; 292 mg/kg i.p.,"increase, without reaching the level of significance"
same,potentialization of narcosis by ethanol,narcosis by ethanol,top of the series
same,"antagonism of the hypermotility by ethanol, result",hypermotility by ethanol; 400 mg per os,slight antagonism which appears at the 50th minute of observation
same,"antagonism of the hypermotility by ethanol, significance",hypermotility by ethanol; 400 mg per os,not significant
same,"antagonism of the hypermotility by ethanol, result","hypermotility by ethanol; 400 mg per os, listed as Sodium acetyhomotaurinate",slight anta-
same,"antagonism of ethanol hypermotility / sedative activity, ranking",hypermotility by ethanol,least active
same,EC50,erythrocyte membrane; [7],5 mM
"CC(=O)NCCS(=O)(=O)[O-].[Na+] [Sodium acetyltaurinate, reference compound]","antagonism of the hypermotility by ethanol, result",hypermotility by ethanol; 400 mg per os,0
"[Cl-].[Cl-].[Mg+2] [magnesium chloride, reference compound]",LD50 expressed in Mg++ or Li+,"[1]; mouse, intraperitoneal route",94 mg
